Literature values in patent US20230285429A1, “CANNABINOID ACID FORMULATIONS, DELIVERY SYSTEMS, AND METHODS OF USE” (Flora Growth U.S. Holdings Corp., priority 2022, published 2023).

How the values were obtained:
[1] = fatty acids, intestinal lymph
[2] = target: spike protein of SARS-CoV-2 (Severe acute respiratory syndrome coronavirus 2, UniProt P0DTC2)

SMILES | percentage transported to the lymph system [1] [%] | affinity for the spike protein [2]
CCCCCCCCCCCC(=O)O [lauric] | 28 | 
CCCCC/C=C\C/C=C\CCCCCCCC(=O)O [linoleic] | 32 | 
CCCCCc1cc(O)c(C/C=C(\C)CCC=C(C)C)c(O)c1C(=O)O [CBGA, cannabigerolic acid] |  | high affinity
CCCCCCCCCC(=O)O [decanoic] | 13 | 
C=C(C)[C@@H]1CCC(C)=C[C@H]1c1c(O)cc(CCCCC)c(C(=O)O)c1O [CBDA, cannabidiolic acid] |  | high affinity
